Reference: ChEMBL document CHEMBL1141453, “Dissection of the recognition properties of p38 MAP kinase. Determination of the binding mode of a new pyridinyl-heterocycle inhibitor family” (J Med Chem, 2007)

Assay: Inhibition of p38 kinase

## Fc1ccc(-c2nc3[nH]ncc3c(-c3ccc(F)cc3)c2-c2ccncc2)cc1
  IC50: 161 nM
